# Results as given in patent US7255984B2, “Combination therapy for osteoporosis” (Pfizer Inc., priority 1996, dated 2007).
# How the values were obtained:
# [1] = system: Osteogenic Female Rat Skeleton; conditions: risedronate administered after discontinuing PGE2; cited from earlier work
# [2] = system: ovariectomized (OVX) rats, lumbar spine; assay: Lumbar vertebral bone mineral measurements (DXA) in OVX rats, combination and sequential treatment; format: in vivo, female Sprague-Dawley rats
# Description: One hundred and four female Sprague-Dawley rats (Charles River, Wilmington, Mass.) at 12 months of age were sham-operated or ovariectomized (OVX) at month 0. Three months post-surgery, OVX rats were treated with either Prostaglandin E2 (PGE2), a known anabolic bone agent, at 3 mg/kg/day (subcutaneously injection), or PGE2 at 3 mg/kg/day (subcutaneously injection) combined with droloxifene (DRO) at 10 mg/kg/day (orally) for 2 months. Thereafter, the PGE2 treatment was withdrawn and the rats were then treated with either vehicle (10% alcohol in saline) or DRO (10 mg/kg/day, orally) for another one and a half months as described in the following.
# Group VIII: Eight OVX rats were subcutaneously injected with 3 mg/kg/day of PGE2 from months 3 to 5, and autopsied at month 5.
# Group IX: Eight OVX rats were subcutaneously injected with 3 mg/kg/day of PGE2 from months 3 to 5, and vehicle from 5 to 6.5 months, and then autopsied at month 6.5.
# Group X: Eight OVX rats were subcutaneously injected with 3 mg/kg/day of PGE2 from months 3 to 5, and 10 mg/kg/day of DRO orally from 5 to 6.5 months, and then autopsied at month 6.5.
# Group XI: Eight OVX rats were subcutaneously injected with 3 mg/kg/day of PGE2 and 10 mg/kg/day of DRO orally from months 3 to 5, and then autopsied at month 5.
# Group XII: Eight OVX rats were subcutaneously injected with 3 mg/kg/day of PGE2 and 10 mg/kg/day of DRO orally from months 3 to 5, and vehicle from months 5 to 6.5, then autopsied at month 6.5.
# Group XIII: Eight OVX rats were subcutaneously injected with 3 mg/kg/day of PGE2 and 10 mg/kg/day of DRO orally from months 3 to 5, and DRO alone from months 5 to 6.5, then autopsied at month 6.5.
# Both PGE2 (Cayman Chemical Co., Ann Arbor, Mich.) or droloxifene (Pfizer Inc. Groton, Conn.) powder was first dissolved in 100% ethanol and further diluted with saline into desired concentrations (final ethanol concentration was 10%). A PGE2 solution was daily injected subcutaneously on the back at 1 ml/kg. A droloxifene solution was given daily p.o. at 1 ml/rat.
# Dual energy x-ray absorptiometry (QDR 1000/W, Hologic, Inc., Waltham, Mass.) equipped with a “Regional High Resolution Scan” software (Hologic, Inc., Waltham, Mass.) was used to determined the bone area, bone mineral content (BMC), and bone mineral density (BMD) of whole lumbar spine and each of the six lumbar vertebrae (LV1-6) in the anesthetized rats. The rats were anesthetized by injection (i.p.) of 1 ml/kg of a mixture of ketamine/rompun (ratio of 4 to 3), and then placed on the rat platform. The scan field sized was 6×1.9 cm, resolution was 0.0254×0.0127 cm, and scan speed was 7.25 mm/sec. The whole lumbar spine scan image was obtained and analyzed. Bone area (BA), and bone mineral content (BMC) were determined, and bone mineral density was calculated (MBC divided by BA) for the whole lumbar spine and each of the six lumbar vertebrae (LV1-6).
# Ovariectomized Rats = conditions: cited from earlier work
# [3] = OVX rats, PGE2 3 mg/kg/day months 3 to 5, then vehicle months 5 to 6.5
structure (smiles),measurement,setting,value
O=P(O)(O)C(O)(Cc1cccnc1)P(=O)(O)O [risedronate],Time for which most of the new cancellous and cortical bone induced by PGE2 is maintained after discontinuing PGE2,[1],at least 60 days
"CCCCC[C@H](O)/C=C/[C@H]1[C@H](O)CC(=O)[C@@H]1C/C=C\CCCC(=O)O [PGE2, Prostaglandin E2]",BMC of LV2 upon PGE2 cessation of treatment,[2]; [3],significant decrease
same,"BMD of LV1, LV2, and LV3 upon PGE2 cessation of treatment",[2]; [3],significant decrease
same,BMC and BMD of whole lumbar spine and lumbar vertebrae versus sham control levels,"[2]; rats 3 months post-OVX, treated for 2 months (months 3 to 5), PGE2 3 mg/kg/day s.c., DRO 10 mg/kg/day orally",completely restored
"CC/C(=C(/c1ccc(OCCN(C)C)cc1)c1cccc(O)c1)c1ccccc1 [DRO, phenol, 3-[1-[4[2-(dimethylamino)ethoxy]phenyl]-2-phenyl-1-butenyl]-, (E)-]",Effect of DRO on the anabolic effects of PGE2,"[2]; OVX rats, DRO 10 mg/kg/day orally combined with PGE2 3 mg/kg/day s.c. for 2 months",did not blunt
same,Maintenance of PGE2-restored bone after discontinuation of PGE2,"[2]; OVX rats, PGE2 months 3 to 5, then DRO 10 mg/kg/day orally months 5 to 6.5",completely maintained
same,Bone loss in the lumbar spine when PGE2 was withdrawn and DRO continued for another 1.5 months,"[2]; OVX rats, PGE2 plus DRO months 3 to 5, then DRO alone 10 mg/kg/day months 5 to 6.5",no bone loss
"O=C(c1ccc(OCCN2CCCCC2)cc1)c1c(-c2ccc(O)cc2)sc2cc(O)ccc12 [raloxifene, 6hydroxy-2-(4-hydroxyphenyl)-3-[4-(2-piperidinoethoxy)benzoyl]benzo[b]thiophene]",Action on bone and lipids,Ovariectomized Rats; compared with estrogen,mimics the favorable action of estrogen
same,Uterine stimulatory effect,Ovariectomized Rats; unlike estrogen,minimal
